Data on 13 molecules can be found in patent US20240199676A1, “ANTIVIRAL COMPOUNDS AND METHODS OF MAKING AND USING THE SAME” (Gilead Sciences, Inc., priority 2022, published 2024).

In series [1] the test system is Human Rhinovirus 1B (HRV1B) in H1-HeLa cells. In words: H1-HeLa HRV-CTG 384-well Assay (Ex. Y), HRV1B. It counts as cell-based. As to conditions: Rhinovirus A, 96 h; H1-HeLa cells, HRV1B MOI 0.5, 4 days, Celltiter-Glo; read-out: EC50 H1-HeLa_HRV1B_HRV-CTG 384-well Assay (per Ex. Y). An excerpt: (§1) Example Y: H1-HeLa HRV-CTG 384-well Assay
(§2) H1-Hela cell line (ATCC, Manassas, VA, Cat #CRL-1958) was maintained in Dulbecco's […] (DMEM) (Corning, New York, NY, Cat #15-018CM) supplemented with 10% fetal bovine serum (FBS) (Hyclone, Logan, UT, Cat #SH30071-03), and 1× Penicillin-Streptomycin-L-Glutamine (Corning, New York, NY, Cat #30-009-CI). Cells were passaged 2 times per week to maintain sub-confluent densities and were used for experiments at passage 5-30. The Human Rhinovirus 1B (HRV1B) (ATCC, Manassas, VA, Cat #VR-1645) , Human Rhinovirus 14 (HRV14) (ATCC, Manassas, VA, Cat #VR-284), and Human Rhinovirus 16 (HRV16) (ATCC, Manassas, VA, Cat #BR-283) was obtained through ATCC. Viral infection was monitored by determining viability of H1-HeLa cells as described below.
(§3) Test molecules are prepared in 100% DMSO in 384-well polypropylene plates (Greiner, Monroe, NC, Cat #784201) with 8 compounds per plate in grouped replicates of 4 at 10 serially diluted concentrations (1:3). The serially diluted compounds were transferred to low dead volume Echo plates (Labcyte, Sunnyvale, CA, Cat #LP-0200).
(§4) The test compounds were spotted to 384-well assay plates (Greiner, Monroe, NC, Cat#781091) at 200 nL per well using an Echo acoustic dispenser (Labcyte, Sunnyvale, CA). H1-HeLa cells were harvested and suspended in DMEM (supplemented with 2% FBS and 1× Penicillin-Streptomycin-L-Glutamine) and seeded to the pre-spotted assay plates at 5,000 cells per well in 30 μL. HRV1B, HRV14, and HRV16 was diluted in DMEM (supplemented with 2% FBS and 1× Penicillin-Streptomycin-L-Glutamine) at 97.1 million Infectious Units (IU) per mL, 151 million IU per mL and 221 million IU per mL respectively. 10 μL of virus per well was added to the assay plates containing cells and compounds, for an MOI of 0.5, 1.0, and 0.25 respectively. The assay plates were incubated for 4 days at 37° C. and 5% CO2. At the end of incubation, Celltiter-Glo (Promega, Madison, WI, Cat #(Ga7573) was prepared. The assay plates and Celltiter-Glo reagent were equilibrated to room temperature for at least 15 minutes. 40 μL per well of Celltiter-Glo reagent was added and the plates were incubated at room temperature for 15 minutes before reading the luminescence signal on an EnVision multimode plate reader (Perkin Elmer, Waltham, MA). Rupintrivir was used as positive control and DMSO was used as negative control. Values were normalized to the positive and negative controls (as 0% and 100% replication, respectively) and data was fitted using non-linear regression analysis by Gilead's dose response tool. The EC50 value for each compound was defined as the concentration reducing viral replication by 50%.
For orientation: ATP-based viability assays read luminescence as a measure of living cells.

Series [2] is described as follows: GI S9 stability (Ex. Z), rat intestinal S9. It counts as in vitro ADME. As to conditions: pooled intestinal S9 fractions; rat intestinal S9, 1.0 mg/mL protein, 2 μM substrate, pH 7.4; read-out: GIS9 Rat T½ (per Ex. Z). Here is the method: (§5) Example Z: GI S9 stability data:
(§6) Stock solutions of test compounds in dimethyl sulfoxide (DMSO) having a final concentration of 10 mM were prepared and used in all experiments. Sekisui XenoTech (Kansas City, KS) provided pooled intestinal S9 fractions. All other chemicals were purchased from Sigma-Aldrich (St. Louis, MO) or VWR (West Chester, PA). Internal Standard/Quench (IS/Q) used to stop reactions was 100 nM labetalol in (by volume) methanol (10%) and acetonitrile (90%).
(§7) Stability in Intestinal S9 Fractions: Duplicate aliquots of test compound or positive control substrate were added to S9 stock diluted with phosphate buffered saline (137 mM NaCl, 2.7 mM KCl, 10 mM phosphate buffer), pH 7.4, to obtain a protein concentration of 1.0 mg/mL. The metabolic reactions were initiated by the addition of the substrates to the S9 reaction mixture to a final concentration of 2 μM. At 0, 10, 20, 30, 60 and 120 min, 25 μL aliquots of the reaction mixture were transferred to plates containing 225 μl of IS/Q solution. After quenching, the plates were centrifuged at 3000×g for 30 minutes. 150 μL aliquots of each supernatant were dried down then reconstituted with 300 μL water. Aliquots (10 μL) of the prepared samples were analyzed on a Thermo Q-Exactive mass spectrometer as described below.
(§8) Liquid Chromatography—Mass Spectrometry: Quantification of test compounds and control substrate was performed by analyte/internal standard peak area ratio (PAR) values measured on a Thermo Q-Exactive mass spectrometer coupled to a Dionex UltiMate 3000 HPLC with a Leap Technologies HTC PAL autosampler. The column used for analysis was a Waters Acquity BEH C18 (1.7 μm particle size, 2.1×50 mm). Mobile phase A consisted of 0.1% (v/v) formic acid in water. Mobile phase B consisted of 0.1% (v/v) formic acid in acetonitrile. Elution of analytes was achieved by a series of linear gradients varying the proportions of A and B. The mass spectrometer was calibrated on a weekly basis and mass tolerance of 5 ppm was used.
(§9) Metabolic stabilities in S9 fractions were determined by measuring the rates of disappearance of test compound and positive control substrate.
(§10) Data (% of substrate remaining) were plotted on a semi-log scale and fitted using an exponential decline model:
(§11) Where Ct—% of substrate remaining at time=t; C0—% of substrate remaining at time=0; t—time; T½—half-life The Half-life (T½) is determined by the following equation: […]
(§12) Assuming a first-order reaction, the slope (k) is extrapolated from the aforementioned plotted data.

Series [3] deals with Human Rhinovirus 14 (HRV14) in H1-HeLa cells. The experiment in a line: H1-HeLa HRV-CTG 384-well Assay (Ex. Y), HRV14. It counts as cell-based. As to conditions: Rhinovirus B, 96 h; H1-HeLa cells, HRV14 MOI 1.0, 4 days, Celltiter-Glo; read-out: EC50 H1-HeLa_HRV14_HRV-CTG 384-well Assay (per Ex Y).
From the text: as §1, §2, §3, §4

Series [4] can be described thus: GI S9 stability (Ex. Z), human intestinal S9. It counts as in vitro ADME. The following applies: pooled intestinal S9 fractions; human intestinal S9, 1.0 mg/mL protein, 2 μM substrate, pH 7.4; read-out: GIS9 Human T½ (per Ex. Z). Here is the method: as §5, §6, §7, §8, §9, §10, §11, §12

With `CC(C)CC(=O)OC[C@@]1(C#N)O[C@@H](c2ccc3c(N)ncnn23)[C@H](O)[C@@H]1O` [Compound 3, ((2R,3S,4R,5S)-5-(4-aminopyrrolo[2,1-f][1,2,4]triazin-7-yl)-2-cyano-3,4-dihydroxytetrahydrofuran-2-yl)methyl 3-methylbutanoate], the EC50 in series [1] came out at 8.84 µM; in series [3], 9.33 µM. For the same molecule, the half-life at 2 μM in series [2] turned out to be 12 min; in series [4] it was 42 min.
`CC1(C(=O)OC[C@@]2(C#N)O[C@@H](c3ccc4c(N)ncnn34)[C@H](O)[C@@H]2O)CCC1` [Compound 24, ((2R,3S,4R,5S)-5-(4-aminopyrrolo[2,1-f][1,2,4]triazin-7-yl)-2-cyano-3,4-dihydroxytetrahydrofuran-2-yl)methyl 1-methylcyclobutane-1-carboxylate]: the figures for the EC50 in series [1] and in series [3] were 3.43 µM and 6.34 µM, respectively.
For the molecule `N#C[C@]1(COC(=O)C2CCCCC2)O[C@@H](c2ccc3c(N)ncnn23)[C@H](O)[C@@H]1O` [Compound 19, ((2R,3S,4R,5S)-5-(4-aminopyrrolo[2,1-f][1,2,4]triazin-7-yl)-2-cyano-3,4-dihydroxytetrahydrofuran-2-yl)methyl cyclohexanecarboxylate], the figures for the EC50 in series [1] and in series [3] were 4.11 µM and 6.84 µM, respectively. The half-life at 2 μM in series [2] is 4 min; in series [4], 13 min.
Take `CC1(C)CC(C(=O)OC[C@@]2(C#N)O[C@@H](c3ccc4c(N)ncnn34)[C@H](O)[C@@H]2O)C1` [Compound 17, ((2R,3S,4R,5S)-5-(4-aminopyrrolo[2,1-f][1,2,4]triazin-7-yl)-2-cyano-3,4-dihydroxytetrahydrofuran-2-yl)methyl 3,3-dimethylcyclobutane-1-carboxylate]: the concentration giving a half-maximal response (EC50) in series [1] was found to be 3.2 µM; in series [3], 7.83 µM. Further, the half-life at 2 μM was found to be 3 min in series [2] and 13 min in series [4].
For `CC(C)(CF)C(=O)OC[C@@]1(C#N)O[C@@H](c2ccc3c(N)ncnn23)[C@H](O)[C@@H]1O` [Compound 29, ((2R,3S,4R,5S)-5-(4-aminopyrrolo[2,1-f][1,2,4]triazin-7-yl)-2-cyano-3,4-dihydroxytetrahydrofuran-2-yl)methyl 3-fluoro-2,2-dimethylpropanoate], the EC50 in series [1] came to 9.37 µM; in series [3], 16.9 µM.
Turning to `CC1(C(=O)OC[C@@]2(C#N)O[C@@H](c3ccc4c(N)ncnn34)[C@H](O)[C@@H]2O)CC1` [Compound 15, ((2R,3S,4R,5S)-5-(4-aminopyrrolo[2,1-f][1,2,4]triazin-7-yl)-2-cyano-3,4-dihydroxytetrahydrofuran-2-yl)methyl 1-methylcyclopropane-1-carboxylate], the concentration giving a half-maximal response (EC50) was determined as 22.8 µM in series [1] and 50 µM in series [3]. The half-life at 2 μM in series [2] is 23 min; in series [4] it was 104 min.
For `[H]/N=c1/c2ccc([C@@H]3O[C@](C#N)(CO)[C@@H](O)[C@H]3O)n2ncn1COC(=O)C(C)C` [Compound 34, (7-((2S,3R,4S,5R)-5-cyano-3,4-dihydroxy-5-(hydroxymethyl)tetrahydrofuran-2-yl)-4-iminopyrrolo[2,1-f][1,2,4]triazin-3(4H)-yl)methyl isobutyrate], the concentration giving a half-maximal response (EC50) in series [1] came out at 28.7 µM; in series [3] it was 50 µM.
For the molecule `CC(C)(C)C(=O)OC[C@@]1(C#N)O[C@@H](c2ccc3c(N)ncnn23)[C@H](O)[C@@H]1O` [Compound 10, ((2R,3S,4R,5S)-5-(4-aminopyrrolo[2,1-f][1,2,4]triazin-7-yl)-2-cyano-3,4-dihydroxytetrahydrofuran-2-yl)methyl pivalate], the values for the 50% effective concentration (EC50) in series [1] and in series [3] were 9.77 µM and 10.9 µM, respectively. For the same molecule, the half-life at 2 μM in series [2] stood at 53 min; in series [4], 124 min.
Regarding `CC[C@@H](C)C(=O)OC[C@@]1(C#N)O[C@@H](c2ccc3c(N)ncnn23)[C@H](O)[C@@H]1O` [Compound 37, ((2R,3S,4R,5S)-5-(4-aminopyrrolo[2,1-f][1,2,4]triazin-7-yl)-2-cyano-3,4-dihydroxytetrahydrofuran-2-yl)methyl (R)-2-methylbutanoate], the EC50 in series [1] came out at 5.71 µM; in series [3], 11.9 µM.
For `CC(=O)OC[C@@]1(C#N)O[C@@H](c2ccc3c(NC(=O)C(C)C)ncnn23)[C@H](O)[C@@H]1O` [Compound 23, ((2R,3S,4R,5S)-2-cyano-3,4-dihydroxy-5-(4-isobutyramidopyrrolo[2,1-f][1,2,4]triazin-7-yl)tetrahydrofuran-2-yl)methyl acetate], the EC50 in series [1] was determined as 33.5 µM; in series [3], 49.8 µM.
In the case of `CC(C)(C)CC(=O)Nc1ncnn2c([C@@H]3O[C@](C#N)(COC(=O)CC(C)(C)C)[C@@H](O)[C@H]3O)ccc12` [Compound 26, ((2R,3S,4R,5S)-2-cyano-5-(4-(3,3-dimethylbutanamido)pyrrolo[2,1-f][1,2,4]triazin-7-yl)-3,4-dihydroxytetrahydrofuran-2-yl)methyl 3,3-dimethylbutanoate], the EC50 in series [1] and in series [3] was 50 µM in each case.
For the molecule `CCC(C)(C)CC(=O)OC[C@@]1(C#N)O[C@@H](c2ccc3c(N)ncnn23)[C@H](O)[C@@H]1O` [Compound 27, ((2R,3S,4R,5S)-5-(4-aminopyrrolo[2,1-f][1,2,4]triazin-7-yl)-2-cyano-3,4-dihydroxytetrahydrofuran-2-yl)methyl 3,3-dimethylpentanoate], the 50% effective concentration (EC50) in series [1] and in series [3] was 50 µM in each case.
In the case of `CC(C)C(=O)O[C@H]1[C@H](c2ccc3c(N)ncnn23)O[C@](C#N)(COC(=O)c2ccccc2)[C@H]1O` [Compound 22, ((2R,3S,4R,5S)-5-(4-aminopyrrolo[2,1-f][1,2,4]triazin-7-yl)-2-cyano-3-hydroxy-4-(isobutyryloxy)tetrahydrofuran-2-yl)methyl benzoate], the concentration for a half-maximal effect (EC50) worked out at 12.8 µM in series [1] and 15.9 µM in series [3].

As a reminder, the EC50 is the concentration needed to bring the measured effect to its halfway point.
